# In paper PMC3082371 (Bioorganic & medicinal chemistry letters, 2008):
# Molecular target: h5-HT2A receptor (Homo sapiens, UniProt P28223)
# Assay: [3H]ketanserin competitive radioligand binding assay
# Conditions: h5-HT2A Ki relative to parent compound AMDA (Ki = 20 nM)
# Chain of h5-HT2A receptor (P28223 whole entry): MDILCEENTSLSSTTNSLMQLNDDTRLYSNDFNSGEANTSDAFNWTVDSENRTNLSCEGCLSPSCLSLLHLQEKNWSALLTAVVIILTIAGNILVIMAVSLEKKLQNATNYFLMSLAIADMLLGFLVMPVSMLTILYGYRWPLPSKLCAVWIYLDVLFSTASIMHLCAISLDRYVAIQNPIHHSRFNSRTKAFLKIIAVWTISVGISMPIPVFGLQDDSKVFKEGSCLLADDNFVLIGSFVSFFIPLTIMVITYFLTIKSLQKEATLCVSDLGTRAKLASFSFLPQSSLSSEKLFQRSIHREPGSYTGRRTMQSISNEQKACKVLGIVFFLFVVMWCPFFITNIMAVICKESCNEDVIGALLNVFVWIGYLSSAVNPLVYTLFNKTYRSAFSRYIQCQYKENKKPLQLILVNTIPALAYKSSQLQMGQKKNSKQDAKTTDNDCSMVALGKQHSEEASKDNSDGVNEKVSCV
row,SMILES,fold decrease in affinity compared to AMDA [fold]
1,"COc1ccc2c(c1)C(CN)c1ccccc1C2 (stereo not drawn) [Compound 3, 2-methoxy-9-aminomethyl-9,10-dihydroanthracene]",> 50
2,"COc1cccc2c1C(CN)c1ccccc1C2 (stereo not drawn) [Compound 2, 1-methoxy AMDA]",> 50
3,"COc1cccc2c1Cc1ccccc1C2CN (stereo not drawn) [Compound 5, 4-methoxy-AMDA]",6
